Test system: adult human hepatocytes
Experiment: Adult human hepatocyte organoids grown in different concentrations of A83-01
Type: cell-based
Conditions: albumin secretion and organoid cross-sectional area readouts
Procedure: In this Example, adult human hepatocytes were grown in different concentrations of A83-01, ranging from 0 nM to 40 nM. FIG. 16 illustrates albumin secretion of hepatocytes grown with 6 different concentrations of A83-01 measured by human albumin ELISA. FIG. 17 illustrates average cross-sectional area of organoids in individual wells grown in 4 different concentrations of A83-01 ranging from 0 to 100 nM. Data is represented as the mean, plus or minus standard deviation of more than 20 wells. FIG. 18 illustrates albumin secretion measured by human Albumin ELISA, comparing adult human hepatocyte organoids grown in 5 different concentrations of A83-01 ranging from 0 nM to 40 nM. The results of these studies illustrate that medium containing less than 50 nM of A83-01 is effective for adult hepatocyte growth.

Cc1cccc(-c2nn(C(=S)Nc3ccccc3)cc2-c2ccnc3ccccc23)n1 [A83-01]
A83-01 concentration in medium effective for adult hepatocyte growth: less than 50 nM

— patent US20250228899A1, “GENERATING AND UTILIZING ADULT HEPATOCYTE ORGANOIDS” (University of Washington, priority 2021, published 2025)
